# Experimental data from ChEMBL document CHEMBL6071209, “Design, Synthesis, and Biological Evaluation of a Series of Spiro Analogues as Novel HPK1 Inhibitors” (ACS Med Chem Lett, 2024).
# Key:
# in vivo [1] = settings: BALB/c, mouse, iv, 1 mg/kg
# in vivo [2] = settings: Sprague-Dawley, rat, iv, 1 mg/kg
# [3] = Clearance in Beagle dog at 1 mg/kg, iv measured upto 24 hrs by LC-MS/MS method; type: ADME, organism-based, Canis lupus familiaris; settings: in vivo
# in vivo [4] = settings: beagle, dog, po, 2 mg/kg
# [5] = Volume of distribution in BALB/c mouse at 1 mg/kg, iv measured upto 24 hrs by LC-MS/MS method; type: ADME, organism-based; settings: in vivo
# [6] = mouse, in vivo, po, 10 mg/kg, 24 h
# [7] = Bioavailability in Beagle dog at 1 mg/kg, iv measured upto 24 hrs by LC-MS/MS method; type: ADME, organism-based, Canis lupus familiaris; settings: in vivo
# [8] = dog, in vivo, po, 2 mg/kg, 24 h
# [9] = rat, in vivo, po, 10 mg/kg, 24 h
# [10] = mouse, in vivo, iv, 1 mg/kg, 24 h
# [11] = Volume of distribution in Beagle dog at 1 mg/kg, iv measured upto 24 hrs by LC-MS/MS method; type: ADME, organism-based, Canis lupus familiaris; settings: in vivo
# [12] = Volume of distribution in Sprague-Dawley rat at 1 mg/kg, iv measured upto 24 hrs by LC-MS/MS method; type: ADME, organism-based; settings: in vivo
# in vivo [13] = settings: BALB/c, mouse, po, 10 mg/kg
# in vivo [14] = settings: Sprague-Dawley, rat, iv, 1 mg/kg; remark: listed apart in the source
# in vivo [15] = settings: Sprague-Dawley, rat, iv, 1 mg/kg; remark: listed apart in the source
# in vivo [16] = settings: BALB/c, mouse, iv, 1 mg/kg; remark: listed apart in the source
clearance at 24 h (in vivo [1]),clearance at 24 h (in vivo [2]),clearance [3],half-life at 24 h (in vivo [4]),Vd [5],AUC/dose [6],bioavailability [7],AUC/dose [8],AUC/dose [9],F [10],Vd [11],Vd [12],half-life at 24 h (in vivo [13]),bioavailability at 24 h (in vivo [14]),half-life at 24 h (in vivo [15]),bioavailability at 24 h (in vivo [16]),Structure (SMILES)
138 mL/min/kg,230 mL/min/kg,108 mL/min/kg,1.5 h,5 L/kg,224.5 ng·h/mL,4.9%,6.5 ng·h/mL,31.2 ng·h/mL,187%,24.2 L/kg,12.5 L/kg,3.7 h,38%,–,–,CN(C)Cc1nc(Nc2ccc(-c3cnc4cc(F)ccn34)c3c2C(=O)NC3)ccc1C1CCOCC1
–,–,–,–,–,–,–,–,15.3 ng·h/mL,–,–,–,–,–,1 h,–,COC1CCC2(CC1)c1ccc(Nc3ccc(-c4cnc5cc(F)ccn45)c4c3C(=O)NC4)nc1CN2C (configuration not stated)
28 mL/min/kg,–,–,–,–,290.2 ng·h/mL,–,–,43.5 ng·h/mL,–,–,–,1.4 h,–,4.1 h,50%,O=C1NCc2c(-c3cnc4cc(F)ccn34)ccc(Nc3ccc4c(n3)CN(CCN3CC[C@@H](F)C3)C43CCOCC3)c21
